Data taken from patent US20240269139A1, “COMPOUNDS FOR TARGETED PROTEIN DEGRADATION OF KINASES” (DANA-FARBER CANCER INSTITUTE, INC., priority 2020, published 2024).
Read-outs that look alike come from different tables or passages of the source.

What was measured:
CRBN = target: T1, CRBN (Homo sapiens, UniProt Q96SW2); assay: Competitive displacement assay for cellular CRBN engagement (BRD4BD2-GFP reporter, dBET6); type: cell-based, H. sapiens; details: 5 hours in presence of dBET6
T1 construct: HEK293T cells stably expressing the BRD4BD2-GFP with mCherry reporter; endogenous in cells; host or cells: HEK293T stably expressing BRD4BD2-GFP / mCherry reporter
Description: HEK293T cells stably expressing the BRD4BD2-GFP with mCherry reporter were seeded at 30-50% confluency in 384-well plates with 50 μL FluoroBrite™ Dulbecco's Modified Eagle's medium (DMEM) media (Thermo Fisher Scientific. A18967) containing 10% fetal bovine serum (FBS) per well a day before compound treatment. Degrader titrations and 100 nM dBET6 or 250 nM AT1 were dispensed using a D300e Digital Dispenser (HP), normalized to 0.5% DMSO, and incubated with cells for 5 hours. Assay plates were imaged using Acumen® (TTP Labtech), as described above.

GCK = target: T2, GCK (Homo sapiens, UniProt Q12851); assay: KiNativ live cell profiling, GCK; type: cell-based, H. sapiens; details: MOLT-4 CRBN−/− cells, 1 μM, 5 h
T2 construct: host or cells: CRBN-/- MOLT-4
T2 sequence (Q12851 1-820): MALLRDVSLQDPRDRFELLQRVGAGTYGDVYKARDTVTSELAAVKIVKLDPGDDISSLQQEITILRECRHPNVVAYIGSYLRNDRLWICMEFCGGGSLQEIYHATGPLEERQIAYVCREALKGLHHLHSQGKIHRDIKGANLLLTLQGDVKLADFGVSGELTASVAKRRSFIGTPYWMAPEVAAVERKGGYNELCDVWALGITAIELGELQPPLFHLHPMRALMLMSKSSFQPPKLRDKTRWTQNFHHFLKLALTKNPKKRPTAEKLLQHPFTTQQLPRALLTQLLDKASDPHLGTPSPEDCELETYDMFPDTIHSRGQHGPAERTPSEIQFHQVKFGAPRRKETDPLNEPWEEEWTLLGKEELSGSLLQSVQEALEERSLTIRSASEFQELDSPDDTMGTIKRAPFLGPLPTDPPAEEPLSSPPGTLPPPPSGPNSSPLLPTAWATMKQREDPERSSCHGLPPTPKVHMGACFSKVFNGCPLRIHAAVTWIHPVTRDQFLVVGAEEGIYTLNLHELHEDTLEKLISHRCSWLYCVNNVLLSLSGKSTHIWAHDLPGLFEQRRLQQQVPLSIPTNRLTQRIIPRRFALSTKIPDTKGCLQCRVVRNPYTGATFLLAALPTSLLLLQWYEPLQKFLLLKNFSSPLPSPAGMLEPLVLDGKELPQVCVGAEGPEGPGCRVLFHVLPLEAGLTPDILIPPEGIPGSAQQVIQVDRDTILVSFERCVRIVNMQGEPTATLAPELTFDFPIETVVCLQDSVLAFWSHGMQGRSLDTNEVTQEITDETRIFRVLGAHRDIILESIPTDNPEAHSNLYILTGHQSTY
Description: One of the key features of degraders is their potential for a sub-stoichiometric mode of action (Paiva and Crews, Curr Opin Chem Biol 50:111-119 (2019)). […] While this has been confirmed in a limited number of individual studies, the generalizability of this hypothesis was tested across the kinome. […] The focus of this test was to establish whether cellular target engagement (target occupancy) correlates with degrader efficacy. […] KiNativ™ is an activity based chemoproteomic assay, which measures the ability of a small molecule of interest to block the binding of a covalent ATP-mimetic probe. […] Furthermore, the proportion of degraded kinases with detectable binding varied dramatically from compound to compound, and was unrelated to cellular permeability (FIG. 3F).
CRBN^−/− MOLT-4 cells were plated in fresh media (RPMI-1640+10% FBS) in 15 cm plates and treated for 5 hours with candidate compounds. To harvest cells, plates were harvested using detachment using CellStripper™ detachment solution (Corning®) and washed 2× with cold phosphate-buffered saline (abbreviated PBS), followed by centrifugation and snap-freezing of cell pellets in liquid nitrogen. The remainder of the KiNativ® profiling experiment was performed by ActivX® Biosciences (La Jolla. CA).

[1] = system: protein kinases in MOLT-4 cells; assay: Whole cell quantitative proteomics in MOLT-4 cells; details: for GCK binding and degradation: 1 μM, 5 h; for kinase degradation over time: MOLT-4, 1 μM, 1, 2, 4, 8 and 12 h
[2] = target: protein kinases (human kinome) (Homo sapiens, UniProt P53667); type: cell-based; details: LIMK1 (P53667-1)
[3] = target: T3, protein kinases (human kinome) (Homo sapiens, UniProt Q4G0N4); type: cell-based; details: Accession Q4GON4, direction down
T3 sequence (Q4G0N4 63-442): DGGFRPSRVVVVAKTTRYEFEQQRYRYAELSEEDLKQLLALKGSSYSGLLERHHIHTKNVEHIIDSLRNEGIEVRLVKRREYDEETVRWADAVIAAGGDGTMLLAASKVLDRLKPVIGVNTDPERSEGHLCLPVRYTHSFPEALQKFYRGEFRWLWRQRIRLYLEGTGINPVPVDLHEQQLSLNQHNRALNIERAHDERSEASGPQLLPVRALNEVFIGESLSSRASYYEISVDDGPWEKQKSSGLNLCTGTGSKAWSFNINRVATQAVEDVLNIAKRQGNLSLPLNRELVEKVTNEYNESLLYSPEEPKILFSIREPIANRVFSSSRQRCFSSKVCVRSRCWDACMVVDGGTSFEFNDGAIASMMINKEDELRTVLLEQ

[4] = direction down, experiment wp103
[5] = direction down, experiment wp105
[6] = direction down, experiment wp107
[7] = direction down, experiment wp160, 2 hr
[8] = direction down, experiment wp160, 4 hr
[9] = direction down, experiment wp172

Row | SMILES | cellular permeability / CRBN engagement (CRBN) | GCK inhibition of probe binding (KiNativ) (GCK) [% I] | GCK binding and degradation [1] | logFC LIMK1 [2, 4] | logFC LIMK1 [2, 5] | logFC LIMK1 [2, 6] | logFC LIMK1 [2, 7] | logFC LIMK1 [2, 8] | logFC LIMK1 [2, 9] | logFC LIMK1 ([2]; experiment wp103, down) | logFC LIMK1 ([2]; experiment wp105, down) | logFC LIMK1 ([2]; experiment wp107, down) | logFC LIMK1 ([2]; experiment wp160, 2 hr, down) | logFC LIMK1 ([2]; experiment wp160, 4 hr, down) | logFC LIMK1 ([2]; experiment wp172, down) | kinase degradation over time [1] | other results
1 | Cc1ccc(C(=O)Nc2ccc(CN3CCN(CCCOCCOCCOCCNC(=O)COc4cccc5c4C(=O)N(C4CCC(=O)NC4=O)C5=O)CC3)c(C(F)(F)F)c2)cc1C#Cc1cnc2cccnn12 (stereo not drawn) [SB1-G-187, N-(4-((4-(1-((2-(2,6-dioxopiperidin-3-yl)-1,3-dioxoisoindolin-4-yl)oxy)-2-oxo-6,9,12-trioxa-3-azapentadecan-15-yl)piperazin-1-yl)methyl)-3 (trifluoromethyl)phenyl)-3-(imidazo[1,2-b]pyridazin-3-ylethynyl)-4-methylbenzamide] | able to permeate the cell membrane and bind to the CRBN E3 ligase | 94 | bound and degraded | – | – | – | – | – | – | – | – | – | – | – | – | – | –
2 | Cc1ccc(NC(=O)c2cccc(C(F)(F)F)c2)cc1N1Cc2cnc(Nc3ccc(N4CCN(Cc5cn(CCCCCOc6cccc7c6C(=O)N(C6CCC(=O)NC6=O)C7=O)nn5)CC4)nc3)nc2N(C)C1=O (stereo not drawn) [DB0646, N-(3-(7-((6-(4-((1-(5-((2-(2,6-Dioxopiperidin-3-yl)-1,3-dioxoisoindolin-4-yl)oxy)pentyl)-1H-1,2,3-triazol-4-yl)methyl)piperazin-1-v)pyridin-3-yl)amino)-1-methyl-2-oxo-1,4-dihydropyrimido[4,5-d]pyrimidin-3(2H)-yl)-4-methylphenyl)-3-(trifluoromethyl)benzamide] | able to permeate the cell membrane and bind to the CRBN E3 ligase | 58 | bound and degraded | −1.497 | −0.5641 | −0.9768 | −0.7376 | −1.563 | −1.32 | −1.497 | −0.5641 | −0.9768 | −0.7376 | −1.563 | −1.32 | most kinases showed increased degradation over time | logFC LIMK1 ([2]; direction down, experiment wp045): −0.5293; logFC LIMK1 ([2]; direction down, experiment wp117): −1.412; logFC LIMK1 ([2]; direction down, experiment wp160, 8 hr): −2.36; logFC LIMK1 ([2]; experiment wp045, down): −0.5293; logFC LIMK1 ([2]; experiment wp117, down): −1.412; logFC LIMK1 ([2]; experiment wp160, 8 hr, down): −2.36
3 | CC(C)S(=O)(=O)c1ccccc1Nc1nc(Nc2ccc(N3CCN(CCOCCNC(=O)CNc4cccc5c4C(=O)N(C4CCC(=O)NC4=O)C5=O)CC3)cc2)ncc1Cl (stereo not drawn) [SK.3.91] | – | – | – | −1.238 | −1.464 | −0.8704 | −0.8634 | −1.366 | −1.869 | −1.238 | −1.464 | −0.8704 | −0.8634 | −1.366 | −1.869 | – | logFC LIMK1 ([2]; direction down, experiment wp114): −0.546; logFC LIMK1 ([2]; direction down, experiment wp133, 1 hr): −0.4117; logFC LIMK1 ([2]; direction down, experiment wp133, 2 hr): −0.8026; logFC LIMK1 ([2]; direction down, experiment wp133, 4 hr): −1.371; logFC LIMK1 ([2]; experiment wp114, down): −0.546; logFC LIMK1 ([2]; experiment wp133, 1 hr, down): −0.4117; logFC LIMK1 ([2]; experiment wp133, 2 hr, down): −0.8026; logFC LIMK1 ([2]; experiment wp133, 4 hr, down): −1.371; logFC NADK2 ([3]; experiment wp160, 1 hr): −0.698
4 | CC(C)(C)c1nc(-c2cccc(NS(=O)(=O)c3c(F)cccc3F)c2F)c(-c2ccnc(NCCOCCNC(=O)CCOCCOCCNc3cccc4c3CN(C3CCC(=O)NC3=O)C4=O)n2)s1 (stereo not drawn) [DD.03.107] | – | – | – | – | – | – | – | – | – | – | – | – | – | – | – | – | logFC LIMK1 ([2]; direction down, experiment wp056): −0.9594; logFC LIMK1 ([2]; direction down, experiment wp137): −1.222; logFC LIMK1 ([2]; direction down, experiment wp147, 1 uM): −0.9691; logFC LIMK1 ([2]; direction down, experiment wp147, 2 uM): −1.375; logFC LIMK1 ([2]; direction down, experiment wp147, 4 uM): −1.536; logFC LIMK1 ([2]; experiment wp056, down): −0.9594; logFC LIMK1 ([2]; experiment wp137, down): −1.222; logFC LIMK1 ([2]; experiment wp147, 1 uM, down): −0.9691; logFC LIMK1 ([2]; experiment wp147, 2 uM, down): −1.375; logFC LIMK1 ([2]; experiment wp147, 4 uM, down): −1.536; logFC NADK2 ([3]; experiment wp147, 1 uM): −0.5404; logFC NADK2 ([3]; experiment wp147, 2 uM): −0.4442; logFC NADK2 ([3]; experiment wp147, 4 uM): −0.9504
5 | CC(C)S(=O)(=O)c1ccccc1Nc1nc(Nc2ccc(N3CCN(CCOCCNC(=O)CNc4cccc5c4C(=O)N(C4CCC(=O)NC4=O)C5=O)CC3)cc2)ncc1Cl (stereo not drawn) [SK-3-91] | able to permeate the cell membrane and bind to the CRBN E3 ligase | 50 | not degraded | – | – | – | – | – | – | – | – | – | – | – | – | most kinases showed increased degradation over time | –
